Results taken from patent publication US8846627B2, “Method for treatment of malaria” (The Second Military Medical University, priority 2009, dated 2014).
Like-named read-outs stand apart in the source and are kept apart here.

Key:
[1] = tested on: Plasmodium berghei (chloroquine sensitive strain); assay: In vivo anti-malarial activity, 4-day suppressive test in infected mice; conditions: Swiss albino mice; for Day 4 % Suppression / Day 5 % Suppression / Day 6 % Suppression: intragastric
Description: Tests were performed in a 4-day suppressive standard test using the methods of David, Thurston and Peters (David, A. F., Philip, J. R., Simon, L. C., Reto B., and Solomon N. Antimalarial drug discovery: Efficacy models for compound screening. Nature Reviews. 2004; 3: 509-520). The plasmodium species, that is most widely employed in rodent malaria parasite-Plasmodium berghei (chloroquine sensitive strain), was used to infect Swiss albino mice for a fourday suppressive test. The P. berghei was subsequently maintained in the laboratory by serial blood passage from mouse to mouse. For the study, a donor mouse with a rising parasitemia of 20% was sacrificed and its blood was collected in a slightly heparinized syringe from the auxiliary vessels. The blood was diluted with Trisodium Citrate (TC) medium so that each 0.2 ml contained approximately 107 infected red cells. Each animal received inoculums of about […], which is expected to produce a steadily rising infection in mice.
Male Swiss albino mice were used. The mice were allowed to acclimatize to the laboratory environment under a controlled temperature of 20° C. and at optimum humidity for at least three days before being subjected to the experiments. All of the mice were divided into groups of six, and infected with malaria parasites.
The infection of the recipient mice was initiated by needle passage of the above mentioned parasite preparation, from the donor to healthy test animals via an intraperitoneal route. Therefore, P. berghei infected red blood cells were intraperitoneally injected into the mice from the blood diluted with TC medium so that each 0.2 ml had approximately 106-107 infected red cells (parasite per kg of body weight). Each mouse was infected with single inoculums of 0.2 ml blood.
The 4-day procedures were started on Mondays while blood smears for parasitemia were collected on Fridays. The infected mice were weighed, randomly divided into treatment, vehicle and standard drug groups. […] The compounds were administered through intra gastric route using the stomach tube to ensure the safe ingestion of the compounds and the vehicle.
Thin smears of blood films were obtained from the peripheral blood on the tail from each mouse on day four after infection. The smears were placed on microscopic slides, fixed with methanol and stained with Gemsa at pH 7.2, for parasitemia. […] The number of parasitized erythrocytes in each of the 10-50 such fields were counted three times and the average was calculated to give the Parasitemia of each individual animal. Percentage of suppression was calculated by using the following formula. % Suppression=(Parasitemia in negative control−Parasitemia in study group)/Parasitemia in negative control

[2] = molecular target: T1, Falcipain-2 protease (FP-2) (Plasmodium falciparum, UniProt Q8I6U4); assay: Falcipain-2 protease inhibition assay (fluorescence reaction rate); assay type: biochemical; conditions: for inhibition at 10 µM: 10 μM compound, pH 5.5; for IC50: pH 5.5, sigmoidal fit, read-out: IC50 against falcipain-2
T1 construct: The falcipain-2 fragment was amplified by the polymerase chain reaction (PCR); His6 (N-terminal MRGS-His6 supplied by the pQE-30 vector; own knowledge of the vector, consistent with the Ni2+-NTA purification) (N); made in house; host or cells: E. coli M15
T1 sequence (Q8I6U4 244-484): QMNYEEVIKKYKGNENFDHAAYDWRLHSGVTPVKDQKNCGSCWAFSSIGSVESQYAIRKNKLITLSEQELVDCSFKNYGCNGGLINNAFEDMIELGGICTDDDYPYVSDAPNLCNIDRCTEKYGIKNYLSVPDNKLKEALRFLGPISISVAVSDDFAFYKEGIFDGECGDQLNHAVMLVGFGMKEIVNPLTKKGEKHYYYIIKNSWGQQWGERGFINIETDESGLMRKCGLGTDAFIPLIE
Description: (1) Expression and Purification of Falcipain-2 and Refolding of FP-2 Inclusion Bodies Protein
(2) The Determination of the Invention Compounds' Inhibitory Activity Against FP-2
FP-2 protein and test compounds dissolved in DMSO (prepared from EXAMPLES 1-4) were added to 197 μL, buffer, containing 100 mM NaOAc, 10 mM DTT, pH 5.5 (final concentration 10 μg/mL). The test compound were Stenopalustroside A, Stenopalustroside D, Tiliroside, kaempferol 3-O-β-(6″-caffeoylglucoside) and kaempferol 3-(2,4-di-E-p-coumaroyl-rhamnoside), respectively, which final concentration were 10 μM and 0 μM (as negative control). These compounds were incubated for […] and employed MD SpectraMax M5 Microplate Reader to continuous detect the RFU for 15 min, at excitation 355 nm and emission 460 nm Calculate the reaction rate Km, and obtain percentage inhibitory rate of the test compound at 10 μM by the following equation,
The equation is: (Kmof control group−Kmof experimental group)/Kmof control group×100%
Select […] compounds with over 50% inhibitory rate to detect IC50, and utilize the compound solutions prepared from EXAMPLE 1 to EXAMPLE 4, Stenopalustroside A, tiliroside kaempferol 3-O-β-(6″-caffeoylglucoside), and the experimental methods and system followed as EXAMPLE 6. According to FP-2 activity reaction rate Km with compounds at different concentrations, we can calculate the inhibitory rate of compounds against FP-2 at different concentration. The IC50 value was fitted with utilizing the Sigmoidal Equation by Origin software.

[3] = tested on: chloroquine sensitive (D6) strain of P. falciparum; assay: In vitro anti-malarial activity assay (plasmodial LDH activity), D6 clone; assay type: cell-based; conditions: Plasmodium falciparum, read-out: P. falciparum (D6 Clone) IC50
Description: (§1) In vitro anti-malarial activity of the representative compounds was determined against chloroquine sensitive (D6) and chloroquine-resistant (W2) strains of P. falciparum.
(§2) The anti-malarial activity was determined by measuring plasmodial LDH activity as described earlier (Jain, M.; Khan, S. I.; Tekwani, B. L.; Jacob, M. R.; Singh, S.; Singh, P. P.; Jain, R. Synthesis, anti-malarial, antileishmanial, and antimicrobial activities of some 8-quinolinamine analogues. Bioorg. Med. Chem. 2005, 13, 4458-4466). A suspension of red blood cells infected with D6 or W2 strains of P. falciparum (200 with 2% parasitemia and 2% hematocrit in RPMI 1640 medium supplemented with 10% human serum and 60 µg/mL Amikacin) was added to the wells of a 96-well plate containing 10 μL of serially diluted test samples. The plate was flushed with a gas mixture of 90% N2, 5% O2, and 5% CO2 and incubated at 37° C. for 72 h in a modular incubation chamber (Billups-Rothenberg, Calif.). Parasitic LDH activity was determined by using Malstat™ reagent (Flow Inc., Portland, Oreg.) according to the procedure of Makler and Hinrichs (M. T. Makler and D. J. Hinrichs, Measurement of the lactate dehydrogenase activity of Plasmodium falciparum as an assessment of parasitemia. J. Am. J. Trop. Med. Hyg. 1993, 48(2):205-210). Briefly, 20 μl, of the incubation mixture was mixed with 100 μL of the Malstat™ reagent and incubated at room temperature for 30 min Twenty microliters of a 1:1 mixture of NBT/PES (Sigma, St. Louis, Mo.) was then added and the plate was further incubated in the dark for 1 h. The reaction was then stopped by the addition of 100 μL of a 5% acetic acid solution. The plate was read at 650 nm. Artemisinin and chloroquine were included in each assay as the drug controls. IC50 values were computed from the dose-response curves. To determine the selectivity index of anti-malarial activity of compounds, their cytotoxicity in vitro to mammalian cells was also determined. The assay was performed in 96-well tissue culture-treated plates as described earlier (J. Mustafa, S. I. Khan, G. Ma, L. A. Walker and I. A. Khan, Synthesis and Anticancer Activities of Fatty Acid Analogs of Podophyllotoxin. Lipids. 2004, 39(2):167-172). Vero cells (monkey kidney fibroblasts) were seeded to the wells of 96-well plate at a density of 25,000 cells/well and incubated for 24 h. Samples at different concentrations were added and plates were again incubated for 48 h. The number of viable cells was determined by Neutral Red assay. IC50 values were obtained from dose-response curves. Doxorubicin was used as a positive control.

[4] = tested on: chloroquine-resistant (W2) strain of P. falciparum; assay: In vitro anti-malarial activity assay (plasmodial LDH activity), W2 clone; assay type: cell-based; conditions: Plasmodium falciparum, read-out: P. falciparum (W2 Clone) IC50
Description: as §1, §2

[5] = D6, 72 h incubation, LDH readout
[6] = W2, 72 h incubation, LDH readout

## O=C(/C=C\c1ccc(O)cc1)OCC1O[C@@H](Oc2c(-c3ccc(O)cc3)oc3cc(O)cc(O)c3c2=O)C(O)[C@H](OC(=O)/C=C/c2ccc(O)cc2)[C@@H]1O (stereo partly shown) [Stenopalustroside D]
[1]; 10 mg/kg daily for 4 days
  Day 4 % Suppression: 30.4%
  Day 5 % Suppression: 51.5%
  Day 6 % Suppression: 32.4%
[1]; 50 mg/kg daily for 4 days
  Day 4 % Suppression: 60.8%
  Day 5 % Suppression: 63.6%
  Day 6 % Suppression: 58.3%
[1]; 100 mg/kg daily for 4 days
  Day 4 % Suppression: 56.5%
  Day 5 % Suppression: 60.6%
  Day 6 % Suppression: 45.9%
[1]; 200 mg/kg daily for 4 days
  Day 4 % Suppression: 43.4%
  Day 5 % Suppression: 42.4%
  Day 6 % Suppression: 37.8%
[1]; 400 mg/kg daily for 4 days
  Day 4 % Suppression: 8.6%
  Day 5 % Suppression: 24.2%
  Day 6 % Suppression: 13.5%
[1]; maximum over doses and days
  maximum suppression ratio: 60%
[2]
  inhibition at 10 µM: 39.4%
[3]; [5]
  IC50: 68.4 µM
[4]; [6]
  IC50: 165 µM

## CC1O[C@@H](Oc2c(-c3ccc(O)cc3)oc3cc(O)cc(O)c3c2=O)C(OC(=O)/C=C/c2ccc(O)cc2)C(O)[C@H]1OC(=O)/C=C/c1ccc(O)cc1 (stereo partly shown) [kaempferol 3-(2,4-di-E-p-coumaroyl-rhamnoside)]
[1]; 50 mg/kg daily for 4 days
  Day 4 % Suppression: 34.7%
  Day 5 % Suppression: 24.2%
  Day 6 % Suppression: 29.7%
[1]; 100 mg/kg daily for 4 days
  Day 4 % Suppression: 13.0%
  Day 5 % Suppression: 21.2%
  Day 6 % Suppression: 24.3%
[1]; 200 mg/kg daily for 4 days
  Day 5 % Suppression: 9.0%
  Day 6 % Suppression: 5.4%
[2]
  inhibition at 10 µM: 49.4%
[3]; [5]
  IC50: 45.1 µM
[4]; [6]
  IC50: 147 µM

## O=C(/C=C/c1ccc(O)c(O)c1)OCC1O[C@@H](Oc2c(-c3ccc(O)cc3)oc3cc(O)cc(O)c3c2=O)C(O)C(O)[C@@H]1O (stereo partly drawn) [kaempferol 3-O-β-(6″-caffeoylglucoside)]
[1]; 10 mg/kg daily for 4 days
  Day 4 % Suppression: 20.6%
  Day 5 % Suppression: 27.2%
  Day 6 % Suppression: 37.8%
[1]; 50 mg/kg daily for 4 days
  Day 4 % Suppression: 52.1%
  Day 5 % Suppression: 54.5%
  Day 6 % Suppression: 45.9%
[1]; 100 mg/kg daily for 4 days
  Day 4 % Suppression: 13.0%
  Day 5 % Suppression: 15.1%
  Day 6 % Suppression: 10.8%
[1]; 200 mg/kg daily for 4 days
  Day 4 % Suppression: 4.3%
  Day 5 % Suppression: 9.0%
  Day 6 % Suppression: 5.4%
[1]; 400 mg/kg daily for 4 days
  Day 5 % Suppression: 6.0%
[2]
  inhibition at 10 µM: 53%
  IC50: 13.5 µM
[3]; [5]
  IC50: 55.8 µM
[4]; [6]
  IC50: 91.3 µM

## CCN(CC)CCCC(C)Nc1ccnc2cc(Cl)ccc12 (stereo not shown) [Chloroquine, reference compound]
[1]; 10 mg/kg daily for 4 days
  Day 4 % Suppression: 100%
  Day 5 % Suppression: 100%
  Day 6 % Suppression: 100%
[3]; D6, 72 h
  IC50: < 26.4 µM
[4]; W2, 72 h
  IC50: 160 µM

## O=C(/C=C\c1ccc(O)cc1)OCC1O[C@@H](Oc2c(-c3ccc(O)cc3)oc3cc(O)cc(O)c3c2=O)C(O)[C@H](OC(=O)/C=C\c2ccc(O)cc2)[C@@H]1O (stereo partly shown) [Stenopalustroside A]
[1]; 200 mg/kg daily for 4 days
  Day 4 % Suppression: 34.7%
  Day 5 % Suppression: 33.3%
  Day 6 % Suppression: 18.9%
[2]
  inhibition at 10 µM: 53%
  IC50: 1.45 µM
[3]; [5]
  IC50: 32.8 µM
[4]; [6]
  IC50: 98.6 µM

## C[C@@H]1CC[C@H]2[C@@H](C)C(=O)O[C@@H]3O[C@@]4(C)CC[C@@H]1[C@]32OO4 [Artemisinine, reference compound]
[3]; [5]
  IC50: < 26.4 µM
[4]; [6]
  IC50: < 26.4 µM
